Test results as given in patent US8871753B2, “Macrocyclic compounds and their use as kinase inhibitors” (Incyte Corporation, priority 2008, dated 2014).
Where a name gives a salt, the structure may show the parent alone. Read-outs that look alike come from different tables or passages of the source.

Columns and labels:
Type in all cases: biochemical
[1] = target: T1, human JAK1 (a.a. 837-1142) (Homo sapiens, UniProt P23458); test: In vitro JAK kinase assay (HTRF, phosphorylation of a biotinylated peptide), JAK1; settings: read-out: JAK1 IC50
T1 construct: human JAK1 (a.a. 837-1142); His tag (N); made in house; host or cells: insect cells (baculovirus)
Method in brief: (§1)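 Kinase reactions ran at room temperature for 1 h with ATP matched per isoform (JAK1 90 μM, JAK2 30 μM, JAK3 3 μM). After an EDTA stop, the phosphorylated biotin-peptide was read by HTRF using Eu-Py20 and SA-APC after 40 min binding.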

[2] = target: T2, human JAK2 (a.a. 828-1132) (Homo sapiens, UniProt O60674); test: In vitro JAK kinase assay (HTRF, phosphorylation of a biotinylated peptide), JAK2
T2 construct: JAK2 (a.a. 828-1132); His tag (N); made in house; host or cells: insect cells (baculovirus)
Method in brief: as §1

[3] = target: T3, human JAK3 (a.a. 781-1124) (Homo sapiens, UniProt P52333); test: In vitro JAK kinase assay (HTRF, phosphorylation of a biotinylated peptide), JAK3
T3 construct: JAK3 (a.a. 781-1124); His tag (N); made in house; host or cells: insect cells (baculovirus)
Method in brief: as §1

[4] = target: TYK2 (Homo sapiens, UniProt P29597); test: TYK2 kinase inhibition (Table A1)
Chain of TYK2 (P29597 whole entry): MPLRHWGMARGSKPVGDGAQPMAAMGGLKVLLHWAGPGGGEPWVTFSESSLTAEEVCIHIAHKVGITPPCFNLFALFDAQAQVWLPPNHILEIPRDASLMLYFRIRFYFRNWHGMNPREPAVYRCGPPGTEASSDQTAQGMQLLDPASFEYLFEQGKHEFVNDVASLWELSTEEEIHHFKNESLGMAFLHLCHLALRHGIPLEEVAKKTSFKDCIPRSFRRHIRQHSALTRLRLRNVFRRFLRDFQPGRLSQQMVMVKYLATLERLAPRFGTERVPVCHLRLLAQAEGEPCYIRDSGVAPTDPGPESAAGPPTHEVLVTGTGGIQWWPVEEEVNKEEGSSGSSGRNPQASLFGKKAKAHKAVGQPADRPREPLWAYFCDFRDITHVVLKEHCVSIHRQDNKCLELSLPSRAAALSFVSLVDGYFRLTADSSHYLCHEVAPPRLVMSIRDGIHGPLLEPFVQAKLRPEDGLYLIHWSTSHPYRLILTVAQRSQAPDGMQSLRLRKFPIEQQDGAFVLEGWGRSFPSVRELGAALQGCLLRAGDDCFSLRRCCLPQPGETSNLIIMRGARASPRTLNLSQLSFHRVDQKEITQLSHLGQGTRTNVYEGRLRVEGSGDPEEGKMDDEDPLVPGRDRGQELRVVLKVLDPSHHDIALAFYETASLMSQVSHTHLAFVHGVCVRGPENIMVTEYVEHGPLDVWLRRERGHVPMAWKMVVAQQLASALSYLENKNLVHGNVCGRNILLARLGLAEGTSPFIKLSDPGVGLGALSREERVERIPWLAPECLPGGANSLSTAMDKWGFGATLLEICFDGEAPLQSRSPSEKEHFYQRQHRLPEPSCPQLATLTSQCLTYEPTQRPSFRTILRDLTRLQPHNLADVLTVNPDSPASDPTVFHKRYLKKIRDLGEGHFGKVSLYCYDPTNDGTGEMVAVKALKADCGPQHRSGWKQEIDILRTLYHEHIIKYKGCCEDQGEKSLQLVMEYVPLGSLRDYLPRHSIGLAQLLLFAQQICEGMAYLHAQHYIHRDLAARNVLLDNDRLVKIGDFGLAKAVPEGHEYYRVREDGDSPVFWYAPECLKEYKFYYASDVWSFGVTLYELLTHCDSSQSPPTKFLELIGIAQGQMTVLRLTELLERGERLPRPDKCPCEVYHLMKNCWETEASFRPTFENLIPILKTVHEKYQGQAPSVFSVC

T3 sequence (P52333 781-1124): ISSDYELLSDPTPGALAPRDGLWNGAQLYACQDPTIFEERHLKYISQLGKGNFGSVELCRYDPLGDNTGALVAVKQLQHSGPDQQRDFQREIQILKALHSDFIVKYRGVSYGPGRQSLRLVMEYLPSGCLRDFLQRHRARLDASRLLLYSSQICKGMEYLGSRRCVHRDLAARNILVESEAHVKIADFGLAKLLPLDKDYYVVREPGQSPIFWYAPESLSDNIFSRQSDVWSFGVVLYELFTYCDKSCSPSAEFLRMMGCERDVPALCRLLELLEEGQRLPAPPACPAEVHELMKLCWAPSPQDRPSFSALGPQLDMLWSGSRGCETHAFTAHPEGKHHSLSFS
T2 sequence (O60674 828-1132): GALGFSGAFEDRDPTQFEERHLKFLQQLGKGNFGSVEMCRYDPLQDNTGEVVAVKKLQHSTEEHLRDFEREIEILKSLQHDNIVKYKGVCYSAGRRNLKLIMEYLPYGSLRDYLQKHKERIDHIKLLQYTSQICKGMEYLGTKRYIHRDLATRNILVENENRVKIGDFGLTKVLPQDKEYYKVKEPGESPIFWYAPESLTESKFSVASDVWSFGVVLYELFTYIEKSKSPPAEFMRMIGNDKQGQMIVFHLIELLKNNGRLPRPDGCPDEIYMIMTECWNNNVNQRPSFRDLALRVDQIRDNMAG
T1 sequence (P23458 849-1154): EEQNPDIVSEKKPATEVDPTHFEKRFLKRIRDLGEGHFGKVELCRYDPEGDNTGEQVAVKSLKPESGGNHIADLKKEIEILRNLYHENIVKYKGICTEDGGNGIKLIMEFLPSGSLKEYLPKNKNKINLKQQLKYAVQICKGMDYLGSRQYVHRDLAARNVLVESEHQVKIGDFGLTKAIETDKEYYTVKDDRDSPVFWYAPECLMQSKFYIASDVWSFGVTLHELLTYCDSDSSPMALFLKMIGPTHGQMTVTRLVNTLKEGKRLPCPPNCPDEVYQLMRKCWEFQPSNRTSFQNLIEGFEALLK

Row | Compound | IC50 ([1]; Table D1) [nM] | IC50 ([2]; Table D1) [nM] | IC50 ([3]; Table D1) [nM] | IC50 ([4]; Table D1) [nM] | also measured
1 | O=C(COc1ccc2cc1CCc1cncc(c1)Nc1ncc(Cl)c(n1)N2)N1CCN(C(=O)c2ccno2)CC1 [Example D260, 6-Chloro-12-{2-[4-(isoxazol-5-ylcarbonyl)piperazin-1-yl]-2-oxoethoxy}-2,4,8,18,22-pentaazatetracyclo[14.3.1.1(3,7).1(9,13)]docosa-1(20),3(22),4,6,9(21),10,12,16,18-nonaene bis(trifluoroacetate)] | 15 | 22 | > 400 | 288 | –
2 | Cc1ncsc1CCC(=O)Nc1ccc2cc1CCc1cccc(c1)Nc1ncc(Cl)c(n1)N2 [Example C48, N-[6-Chloro-2,4,8,22-tetraazatetracyclo[14.3.1.1(3,7).1(9,13)]docosa-1(20),3(22),4,6,9(21),10,12,16,18-nonaen-12-yl]-3-(4-methyl-1,3-thiazol-5-yl)propanamide trifluoroacetate] | – | – | – | – | IC50 [1]: 52 nM; IC50 [2]: 74 nM; IC50 [3]: 1150 nM; IC50 [4]: 647 nM
3 | Cc1cnc2nc1Nc1ccc(NC(=O)CC3CCN(c4nncs4)CC3)c(c1)CCc1cccc(c1)N2 [Example C53, N-[6-Methyl-2,4,8,22-tetraazatetracyclo[14.3.1.1(3,7).1(9,13)]docosa-1(20),3(22),4,6,9(21),10,12,16,18-nonaen-12-yl]-2-[1-(1,3,4-thiadiazol-2-yl)piperidin-4-yl]acetamide trifluoroacetate] | – | – | – | – | IC50 [1]: 39 nM; IC50 [2]: > 200 nM; IC50 [3]: > 200 nM; IC50 [4]: 199 nM
4 | COCC(=O)N1CCN(C(=O)COc2ccc3cc2CCc2cncc(c2)Nc2ncc(Cl)c(n2)N3)CC1 [Example D262, 6-Chloro-12-{2-[4-(methoxyacetyl)piperazin-1-yl]-2-oxoethoxy}-2,4,8,18,22-pentaazatetracyclo[14.3.1.1(3,7).1(9,13)]docosa-1(20),3(22),4,6,9(21),10,12,16,18-nonaene bis(trifluoroacetate)] | 150 | > 400 | > 400 | > 400 | –
5 | N#Cc1ccccc1S(=O)(=O)N1CCC(CCOc2ccc3cc2CCc2cncc(c2)Nc2ncc(Cl)c(n2)N3)CC1 [Example D163, 2-{[4-(2-{[6-Chloro-2,4,8,18,22-pentaazatetracyclo[14.3.1.1(3,7).1(9,13)]docosa-1(20),3(22),4,6,9(21),10,12,16,18-nonaen-12-yl]oxy}ethyl)piperidin-1-yl]sulfonyl}benzonitrilebis(trifluoroacetate)] | 190 | > 400 | > 400 | > 400 | –
6 | O=C(COc1ccc2cc1CCc1cncc(c1)Nc1ncc(Cl)c(n1)N2)N1CCC(c2cc(-c3cccs3)[nH]n2)CC1 [Example D257, 6-Chloro-12-(2-oxo-2-{4-[5-(2-thienyl)-1H-pyrazol-3-yl]piperidin-1-yl}ethoxy)-2,4,8,18,22-pentaazatetracyclo[14.3.1.1(3,7).1(9,13)]docosa-1(20),3(22),4,6,9(21),10,12,16,18-nonaene tris(trifluoroacetate)] | 63 | 112 | > 400 | > 400 | –
7 | CC1(C)Cc2cccc(NC(=O)N3CCC(CCOc4ccc5cc4CCc4cncc(c4)Nc4ncc(Cl)c(n4)N5)CC3)c2O1 [Example D175, 4-(2-{[6-Chloro-2,4,8,18,22-pentaazatetracyclo[14.3.1.1(3,7).1(9,13)]docosa-1(20),3(22),4,6,9(21),10,12,16,18-nonaen-12-yl]oxy}ethyl)-N-(2,2-dimethyl-2,3-dihydro-1-benzofuran-7-yl)piperidine-1-carboxamide bis(trifluoroacetate)] | 150 | > 400 | > 400 | > 400 | –
8 | O=C(COc1ccc2cc1CCc1cncc(c1)Nc1ncc(Cl)c(n1)N2)N1CCN(c2noc3ccccc23)CC1 [Example D250, 12-{2-[4-(1,2-Benzisoxazol-3-yl)piperazin-1-yl]-2-oxoethoxy}-6-chloro-2,4,8,18,22-pentaazatetracyclo[14.3.1.1(3,7).1(9,13)]docosa-1(20),3(22),4,6,9(21),10,12,16,18-nonaene tris(trifluoroacetate)] | 43 | 49 | > 400 | > 400 | –
9 | O=C(Nc1ccc2cc1CCc1cccc(c1)Nc1ncc(Cl)c(n1)N2)N1CCCC1 [Example B81, N-[6-Chloro-2,4,8,22-tetraazatetracyclo[14.3.1.1(3,7).1(9,13)]docosa-1(20), 3(22),4,6,9(21),10,12,16,18-nonaen-12-yl]pyrrolidine-1-carboxamide trifluoroacetate] | – | – | – | – | IC50 ([1]; Table B1): 109 nM; IC50 ([2]; Table B1): 123 nM; IC50 ([3]; Table B1): 475 nM; IC50 ([4]; Table B1): 221 nM
10 | N#Cc1ccc(NC(=O)N2CCC(C(=O)Nc3ccc4cc3CCc3cccc(c3)Nc3ncc(Cl)c(n3)N4)CC2)cc1 [Example A37, N(4)-[6-Chloro-2,4,8,22-tetraazatetracyclo[14.3.1.1(3,7).1(9,13)]docosa-1(20),3(22),4,6,9(21),10,12,16,18-nonaen-12-yl]-N(1)-(4-cyanophenyl)piperidine-1,4-dicarboxamide trifluoroacetate] | – | – | – | – | IC50 ([1]; method AA1 (90 μM ATP) or AA2 (1000 μM ATP), not stated per value): 9 nM; IC50 ([2]; method AA1 (30 μM ATP) or AA2 (1000 μM ATP), not stated per value): 11 nM; IC50 ([3]; method AA1 (3 μM ATP) or AA2 (1000 μM ATP), not stated per value): 24 nM; IC50 [4]: 21 nM
11 | O=C(COc1ccc2cc1CCc1cncc(c1)Nc1ncc(Cl)c(n1)N2)N1CCN(c2cccc(Cl)n2)CC1 [Example D240, 6-Chloro-12-{2-[4-(6-chloropyridin-2-yl)piperazin-1-yl]-2-oxoethoxy}-2,4,8,18,22-pentaazatetracyclo[14.3.1.1(3,7).1(9,13)]docosa-1(20),3(22),4,6,9(21),10,12,16,18-nonaene tris(trifluoroacetate)] | 255 | > 400 | > 400 | > 400 | –
12 | Cc1oncc1C(=O)N1CCC(CCOc2ccc3cc2CCc2cncc(c2)Nc2ncc(Cl)c(n2)N3)CC1 [Example D178, 6-Chloro-12-(2-{1-[(5-methylisoxazol-4-yl)carbonyl]piperidin-4-yl}ethoxy)-2,4,8,18,22-pentaazatetracyclo[14.3.1.1(3,7).1(9,13)]docosa-1(20),3(22),4,6,9(21),10,12,16,18-nonaene bis(trifluoroacetate)] | 265 | > 400 | > 400 | > 400 | –
13 | Cc1cc(C(=O)N2CCC(COc3ccc4cc3CCc3cncc(c3)Nc3ncc(Cl)c(n3)N4)CC2)no1 [Example D226, 6-Chloro-12-({1-[(5-methylisoxazol-3-yl)carbonyl]piperidin-4-yl}methoxy)-2,4,8,18,22-pentaazatetracyclo[14.3.1.1(3,7).1(9,13)]docosa-1(20),3(22),4,6,9(21),10,12,16,18-nonaene bis(trifluoroacetate)] | 255 | > 400 | > 400 | > 400 | –

The next lines start with results.

Row | IC50 ([1]; Table D1) [nM] | IC50 ([2]; Table D1) [nM] | IC50 ([3]; Table D1) [nM] | IC50 ([4]; Table D1) [nM] | Compound | also measured
14 | 39 | 75 | > 400 | > 400 | Cc1occc1NC(=O)N1CCC(CCOc2ccc3cc2CCc2cncc(c2)Nc2ncc(Cl)c(n2)N3)CC1 [Example D164, 4-(2-{[6-Chloro-2,4,8,18,22-pentaazatetracyclo[14.3.1.1(3,7).1(9,13)]docosa-1(20),3(22),4,6,9(21),10,12,16,18-nonaen-12-yl]oxy}ethyl)-N-(2-methyl-3-furyl)piperidine-1-carboxamide bis(trifluoroacetate)] | –
15 | 34 | 255 | > 400 | > 400 | O=C(Nc1ccc(F)cc1)N1CCC(CCOc2ccc3cc2CCc2cncc(c2)Nc2ncc(Cl)c(n2)N3)CC1 [Example D168, 4-(2-{[6-Chloro-2,4,8,18,22-pentaazatetracyclo[14.3.1.1(3,7).1(9,13)]docosa-1(20),3(22),4,6,9(21),10,12,16,18-nonaen-12-yl]oxy}ethyl)-N-(4-fluorophenyl)piperidine-1-carboxamide bis(trifluoroacetate)] | –
16 | 32 | 13 | 85 | 70 | O=C(C[C@H]1CCCN(C(=O)c2ccccc2)C1)Nc1ccc2cc1CCc1cccc(c1)Nc1ncc(Cl)c(n1)N2 [Example D203, 2-[(3R)-1-Benzoylpiperidin-3-yl]-N-[6-chloro-2,4,8,22-tetraazatetracyclo[14.3.1.1(3,7).1(9,13)]docosa-1(20),3(22),4,6,9(21),10,12,16,18-nonaen-12-yl]acetamide trifluoroacetate] | –
17 | 39 | > 400 | > 400 | > 400 | O=C(CC1CCN(c2ccncc2)C1)Nc1ccc2cc1CCc1cncc(c1)Nc1ncc(Cl)c(n1)N2 (stereo not drawn) [Example D157, N-[6-Chloro-2,4,8,18,22-pentaazatetracyclo[14.3.1.1(3,7).1(9,13)]docosa-1(20),3(22),4,6,9(21),10,12,16,18-nonaen-12-yl]-2-(1-pyridin-4-ylpyrrolidin-3-yl)acetamide tris(trifluoroacetate)] | –
18 | 26 | 132 | > 1000 | 304 | Cc1cc(C(=O)N2CC(CC(=O)Nc3ccc4cc3CCc3cncc(c3)Nc3ncc(Cl)c(n3)N4)C2)no1 [Example D143, N-[6-Chloro-2,4,8,18,22-pentaazatetracyclo[14.3.1.1(3,7).1(9,13)]docosa-1(20),3(22),4,6,9(21),10,12,16,18-nonaen-12-yl]-2-{1-[(5-methylisoxazol-3-yl)carbonyl]azetidin-3-yl}acetamide bis(trifluoroacetate)] | –
